Results taken from patent publication US9517243B2, “Beta-mannosylceramide and stimulation of NKT cell anti-tumor immunity” (The United States of America, as represented by the …, priority 2010, dated 2016).

Tests used:
[1] = system: IFN-γ, IL-4, IL-13, IL-12 (p70), and TNF-α in plasma; assay: In vivo cytokine assay (plasma, multiplex); parameters: species or system BALB/c mice; conditions: 0-24 hours
Experimental: FIGS. 8A-8E show graphs where the cytokine production induced by the glycolipid panel was tested in vivo. BALB/c mice were challenged with CT26 (5×10^5) i.v. followed by 50 pmoles of glycolipid or vehicle control i.p. at time 0. Mice were bled retroorbitally at 0, 3, 6, 12, and 24 hours, and the amount of IFN-γ (8A), TNF-α (8B), IL-4 (8C), IL-12 (p70) (8D), and IL-13 (8E) in plasma was determined. Each data point represents mean±SD of triplicates. […] Little cytokine production was detected following OCH and AH04-2 administration. β-ManCer induced very little cytokine production except for some IL-12 and TNF-α.
In vivo cytokine assay. The concentration of IFN-γ, IL-4, IL-13, IL-12 (p70), and TNF-α in plasma samples was determined by MILLIPLEX cytokine multiplex immunoassay kit (Millipore, Billerica, Mass.) using a Bio-Plex system (Bio-Rad, Hercules, Calif.) according to manufacturer's instructions.

BALB/c splenocytes = assay: In vitro cytokine assay (ELISA); type: cell-based, BALB/c mice; conditions: 48 hours, ELISA; for IFN-γ production in vitro: FIG. 7A; for IL-4 production in vitro: FIG. 7B; for IL-13 production in vitro: FIG. 7C
Experimental: In vitro cytokine assay. Splenocytes (8×10^5/well of 96 well plates) from BALB/c mice were stimulated with glycolipid or solvent control for 48 hours. Supernatants were collected, and the concentration of IFN-γ, IL-4, or IL-13 was determined by ELISA.

CT26 lung metastasis = assay: In vivo lung metastasis assay, CT26 colon carcinoma; parameters: species or system BALB/c mice; conditions: for Tumor protection in IFN-γ knockout mice: IFN-γ−/− BALB/c, 50 pmoles, FIG. 9A; for Effect of NOS inhibition (L-NAME vs D-NAME) on tumor protection: WT mice, 50 pmoles glycolipid, 0.2 mg L-NAME i.p., FIG. 6, 10A; for Rank order of tumor protection: dose of 50 pmoles
Experimental: In vivo lung metastasis assay. 5×10^5 CT26 cells in 0.2 ml PBS were injected i.v. into the tail vein. Glycolipid or vehicle control (0.00025% Tween 20) was injected i.p. (in 0.2 ml PBS) within one hour after tumor challenge. Mice were sacrificed 12-16 days after tumor challenge, and lungs were stained and fixed and metastases were enumerated as previously described (Park, J. M., et al., International J. of Cancer, 114:80-87 (2004)). The same protocol was used for the B16F10 cell line, except that lungs were perfused with PBS instead of ink before removal.
For CD8^+T and NK cell depletion, mice were treated with anti-CD8 (200 μg/injection), anti-asialo GM1 (25 μl/injection), or control antibodies 1 day prior to tumor challenge, the day of challenge, and 5 and 10 days following tumor challenge. CD8^+T and NK cell depletion of >90% was confirmed by flow cytometric staining for CD8 (clone 53-6.7, BD Biosciences, Rockville, Md.) and pan-NK cell marker (clone DX5, eBioscience, San Diego, Calif.) at the conclusion of the experiment. For Gr-1^+ cell depletion, mice were injected i.p. with 100, 50, or 1 μg anti-Gr-1 antibody, 16 and 40 hours after tumor challenge. CD11b^+Gr-1^high cell depletion of >99% and CD11b^+Gr-1^intermediate cell depletion of >80% by 100 μg of anti-Gr-1 antibodies, was confirmed by flow cytometric staining for CD11b (clone M1/70, eBioscience), Gr-1 (clone RB6-8C5, BD Biosciences), Ly-6C (clone AL-21, BD Biosciences) and Ly6G. (clone 1A8, BD Biosciences). Where indicated, mice received 0.2 mg L-NAME or D-NAME i.p. twice per day on the day of tumor challenge, the day after tumor challenge, and once daily for 2 weeks after tumor injection. Blockade of TNF-α was achieved by administration of 100 μg of etanercept every other day, beginning immediately following tumor challenge, per the method of Fichtner-Feigl, S., et al., Cancer Res., 68:3467-3475 (2008). For PPARγ inhibition, mice were treated 0.15 mg/ml GW9662 (200 μL i.p.) or vehicle control (0.5% DMSO in PBS) immediately following tumor challenge, and then 30 minutes prior to glycolipid administration, via the method of Coste, A., et al., J. Immunol., 180:4939-4947 (2008).

activated NKT cells = assay: Anergy: re-stimulation of splenocytes one month after in vivo treatment; parameters: species or system mice
Experimental: FIG. 13A is a graph showing splenocyte proliferation measured by ^3H-thymidine incorporation during the final 8 hours of a 72-hour culture after being re-stimulated in culture. Pretreatment with α-GalCer induces anergy but pretreatment with β-ManCer induces much less anergy.
FIG. 13B is a graph showing the amount of IFN-γ produced by the splenocyte culture after 48 hours of re-stimulation.
It is known that α-GalCer induces strong anergy of activated NKT cells for over a month after in vivo stimulation. […] Mice were treated with α-GalCer, β-ManCer, or vehicle, and one month later, splenocytes were re-stimulated, and the degree of activation was measured by proliferation and IFN-γ production.

iNKT cells = assay: In vitro iNKT activation (CFSE dilution, splenocytes); type: cell-based, mice; conditions: 3.5-day stimulation of mouse splenocytes; FIG. 3
Experimental: In vitro iNKT activation. Splenocytes were harvested from mice (n=3), and erythrocytes were depleted with ACK Lysis Buffer (Lonza, Walkersville, Md.). Cells were labeled with 0.1 μM CFSE (Invitrogen, Carlsbad, Calif.) for 15 minutes at room temperature. Labeled cells (4×10^6 cells/well of 24-well plate) were stimulated for 3.5 days with glycolipid or vehicle control. At the end of the culture, cells were harvested and stained with PBS57-loaded CD1d tetramer (NIH Tetramer Facility) and anti-CD3 (clone 145-2C11, Biolegend). The fluorescence of stained cells was measured by FACSCalibur (BD Biosciences), and data were analyzed by Flowjo (Tree Star, Inc., Ashland, Oreg.).

| SMILES | IL-4 in plasma ([1]; 50 pmoles i.p., FIG. 8C) | IL-13 in plasma ([1]; 50 pmoles i.p., FIG. 8E) | IFN-γ production in vitro (BALB/c splenocytes) | IL-4 production in vitro (BALB/c splenocytes) | IL-13 production in vitro (BALB/c splenocytes) | Tumor protection in IFN-γ knockout mice (CT26 lung metastasis) | Effect of NOS inhibition (L-NAME vs D-NAME) on tumor protection (CT26 lung metastasis) | Rank order of tumor protection (CT26 lung metastasis; FIG. 2D) | Cytokine production in vivo (overall) ([1]; 50 pmoles i.p.) | IFN-γ in plasma ([1]; 50 pmoles i.p. after CT26 i.v., FIG. 8A) | IFN-γ production on re-stimulation, compared to cells from vehicle-treated mice (activated NKT cells; 48 hours of re-stimulation, FIG. 13B) | Splenocyte proliferation on re-stimulation, compared to cells from vehicle-treated mice (activated NKT cells; re-stimulation with α-GalCer or β-ManCer, 3H-thymidine, 72-hour culture, FIG. 13A) | Proliferation of iNKT cells (CFSE dilution) (iNKT cells) [%] | Effect of TNF-α blockade (TNF-αR-Fc, etanercept) on protection (CT26 lung metastasis; 100 μg etanercept every other day, FIG. 10C) | Potency relative to β-ManCer (CT26 lung metastasis; results at the 5 pmole dose, FIG. 2D) |
| --- | --- | --- | --- | --- | --- | --- | --- | --- | --- | --- | --- | --- | --- | --- | --- |
| CCCCC/C=C\C/C=C\CCCCCCCCCC(=O)N[C@@H](CO[C@H]1O[C@H](CO)[C@H](O)[C@H](O)[C@H]1O)[C@H](O)[C@H](O)CCCCCCCCCCCCCC [C20:2, reference compound] | increased | increased | lower IFN-γ level | higher amounts | higher amounts | completely failed to induce any tumor protection | no effect | similarly protective |  |  |  |  |  |  |  |
| CCCCCCCCCCCCCCCCCCCCCCCC(=O)N[C@@H](COC1OC(CO)C(O)C(O)C1O)[C@H](O)[C@H](O)CCCCC (some centres unmarked) [OCH] |  |  | lower IFN-γ level | higher amounts | higher amounts |  |  | significantly less tumor killing | Much less cytokine production |  |  |  |  |  |  |
| CCCCCCCCCCCCCCCCCCCCCCCCCC(=O)N[C@@H](CO[C@H]1O[C@H](CO)[C@H](O)[C@H](O)[C@H]1O)[C@H](O)[C@H](O)CCCCCCCCCCCCCC [α-GalCer, α-galactosylceramide, reference compound] |  |  | greatest IFN-γ production |  |  | completely failed to induce any tumor protection | no effect | greatest protection |  | most IFN-γ | severely suppressed | severely suppressed | 44 | no effect | about a log more potent |
